# Measurements: ChEMBL document CHEMBL1144942, “Enantioselective responses to a phosphorothioate analogue of lysophosphatidic acid with LPA3 receptor-selective agonist activity” (J Med Chem, 2003)
# Key:
# HT-29 = test: Agonistic activity in human HT-29 colon cancer cells; format: functional, cell-based
# OVCAR-3 = test: Agonistic activity in human OVCAR-3 (ovarian cancer cells); format: functional, cell-based
SMILES,EC50 (HT-29) [µM],EC50 (OVCAR-3) [µM]
CCCCCCCCCCCCCCCCCC(=O)OC[C@@H](COP(O)(O)=S)OC,< 1000,0.0465
CCCCCCCCCCCCCCCCCC(=O)OC[C@H](COP(O)(O)=S)OC,< 1000,0.009
